Patent US10093696B2, “Nitric oxide donating carnosine compounds” (NICOX SCIENCE IRELAND, priority 2014, dated 2018)

Legend:
[1] = tested on: hypertonic saline-induced IOP increase in rabbits; test: Intraocular pressure (IOP) lowering activity in hypertonic saline-induced IOP increase in rabbits; assay type: in vivo, New Zealand White rabbits; details: for IOP reduction after single application (in words): compared to ISMN and timolol; for IOP change 60 minutes / IOP change 120 minutes / IOP change 240 minutes: single topical application
Experimental: The present study evaluated the intraocular pressure lowering effect of single applications of two compounds of the inventions (compound (1a) and compound (4a)) and two reference compounds at the same concentrations and in rabbits with induced IOP increase.
Adult male New Zealand White rabbits weighting 1.8-2.0 Kg were used in the experiments.
The transient increase in IOP was induced by the injection of 0.1 ml of hypertonic saline solution (5%) into the vitreous bilaterally (Krauss et al., 2011, Orihashi et al., 2005).
(§1) IOP was measured using a Tono-Pen XL prior to hypertonic saline injection (basal) and at 30, 60, 120 and 240 min thereafter. Vehicle (5% cremophor-EL; 0.3% DMSO; 0.2 mg/ml Benzalkonium chloride in PBS pH 6.0) or compound (1.0%) was instilled as eye drops immediately after hypertonic saline injection. Eyes were randomly assigned to different treatment groups. Vehicle and compounds were directly instilled into the conjunctiva pocket at the desired doses. One drop of 0.4% oxybuprocaine hydrochloride (Novesine, Sandoz) was instilled in each eye immediately before each set of pressure measurements.
Results are reported in Table 1 and they are expressed as IOP change (at 60, 120 and 240 minutes following topical administration) versus vehicle and versus IOP at basal before hypertonic saline injection.
Hypertonic Saline-Induced IOP Increase Rabbit Model
as §1, with “compound (9)” for “compound”, “compound (9)” for “compounds”
Experimental data are reported in Table 3 and they are expressed as IOP change (at 60, 120 and 240 minutes following topical administration) versus vehicle and versus IOP at basal before hypertonic saline injection
The hypotensive effects of compound (9) and of ISMN and timolol were evaluated using the same transient ocular hypertensive rabbit model, see Example 9, but in different groups of hypertensive rabbits.

[2] = tested on: ocular normotensive rabbits; test: Intraocular pressure (IOP) lowering activity in ocular normotensive New Zealand White rabbits; assay type: in vivo, New Zealand White (NZW) rabbits; details: 1% eye drops; for duration of IOP reduction after single application (in words): compared to the reference compound; for IOP change 60 minutes / IOP change 120 minutes / IOP change 180 minutes / IOP change 240 minutes / IOP change 30 minutes / IOP change 300 minutes: single topical application
Experimental: The present study evaluated the long lasting intraocular pressure lowering effect of single application of two compounds of the inventions (compound (1a) and compound (4a)) with respect to a prior art compound, in an ocular normotensive animal model (rabbit) at the same concentrations.
Adult male New Zealand White (NZW) rabbits weighting 1.8-2.0 Kg were used in the experiments.
(§2) IOP was measured using a pneumatonometer 30 CLASSIC™ before topical application (basal) and at different time points (30, 60, 120, 240 and 300 min) thereafter. Vehicle (5% cremophor-EL; 0.3% DMSO; 0.2 mg/ml bac in PBS pH 6.0) or compound of the invention were instilled as eye drops into the conjunctiva pocket. Eyes were randomly assigned to different treatment groups. One drop of 0.4% oxybuprocaine hydrochloride (Novesine, Sandoz) was instilled in each eye immediately before each set of pressure measurements. Results are reported in Table 2 and they are expressed as IOP change (at 60, 120, 180 and 240 minutes following topical administration) versus vehicle and versus IOP at basal.
Ocular Normotensive Rabbit Model
as §2, with “(9) (1%)” for “of the invention”, “measurements.” for “measurements. Results are reported in Table 2 and they are expressed as IOP change (at 60, 120, 180 and 240 minutes following topical administration) versus vehicle and versus IOP at basal.”
Experimental data are reported in Table 4 and they are expressed as IOP change (at 60, 120, 180 and 240 minutes following topical administration) versus vehicle and versus IOP at basal.
The IOP-lowering effects of compound (9) and of the Reference compound were assessed in the same normotensive rabbit model, see Example 10, but using different groups of […] rabbits.

[3] = Table 1, conc. 1% eye drops, versus vehicle and versus basal IOP
[4] = Table 2, versus vehicle and versus basal IOP
[5] = Table 3, 1% eye drops, versus vehicle and basal, references from different groups of rabbits (Example 9)
[6] = Table 4, versus vehicle and basal, reference from different groups of rabbits (Example 10)

SMILES | IOP reduction after single application (in words) ([1]; 1% eye drops) | IOP change 60 minutes [1, 3] [mmHg] | IOP change 120 minutes [1, 3] [mmHg] | IOP change 240 minutes [1, 3] [mmHg] | duration of IOP reduction after single application (in words) [2] | IOP change 60 minutes [2, 4] [mmHg] | IOP change 120 minutes [2, 4] [mmHg] | IOP change 180 minutes [2, 4] [mmHg] | IOP change 240 minutes [2, 4] [mmHg] | IOP change 60 minutes [1, 5] [mmHg] | IOP change 120 minutes [1, 5] [mmHg] | IOP change 240 minutes [1, 5] [mmHg] | IOP change 30 minutes [2, 6] [mmHg] | IOP change 60 minutes [2, 6] [mmHg] | IOP change 120 minutes [2, 6] [mmHg] | IOP change 180 minutes [2, 6] [mmHg] | IOP change 240 minutes [2, 6] [mmHg] | IOP change 300 minutes [2, 6] [mmHg]
COC(=O)[C@H](Cc1c[nH]cn1)NC(=O)CCNC(=O)CCCCO[N+](=O)[O-].Cl [Compound (1a), (S)-methyl-3-(1H-imidazol-4-yl)-2-(3-(5-(nitrooxy)pentanamido)propanamido)propanoate hydrochloride] | significant IOP reduction | −11.4 ± 0.8 | −12.9 ± 0.4 | −7.4 ± 0.5 | significantly longer IOP reduction | −1.2 ± 1.0 | −1.5 ± 0.9 | −1.9 ± 0.9 | −1.7 ± 1.2 | – | – | – | – | – | – | – | – | –
O=C(CCCCCO[N+](=O)[O-])NCCC(=O)N[C@@H](Cc1c[nH]cn1)C(=O)O [Compound (4a), (S)-3-(1H-imidazol-4-yl)-2-(3-(6-(nitrooxy)hexanamido)propanamido) propanoic acid 2,2,2-trifluoroacetate] | significant IOP reduction | −7.6 ± 1.6 | −9.0 ± 1.2 | −5.3 ± 0.6 | significantly longer IOP reduction | −1.6 ± 0.4 | −1.5 ± 0.6 | −1.4 ± 0.6 | −0.9 ± 0.6 | – | – | – | – | – | – | – | – | –
COC(=O)[C@H](Cc1c[nH]cn1)NC(=O)CCNC(=O)CCC[C@@H](CO[N+](=O)[O-])O[N+](=O)[O-] [Compound (9), (S)-methyl 2-(3-((S)-5,6-bis(nitrooxy)hexanamido)propanamido)-3-(1H-imidazol-4-yl)propanoate] | significant IOP reduction | – | – | – | long lasting IOP-lowering effect | – | – | – | – | −7.2 ± 1.0 | −6.4 ± 1.0 | −3.9 ± 0.9 | −1.6 ± 0.2 | −1.0 ± 0.4 | −1.3 ± 0.2 | −1.3 ± 0.3 | −1.5 ± 0.4 | −1.5 ± 0.4
O=[N+]([O-])O[C@@H]1CO[C@H]2[C@@H]1OC[C@@H]2O [ISMN, Isosorbide mononitrate, reference compound] | – | −0.7 ± 2.9 | −6.6 ± 1.8 | −1.2 ± 1.3 | – | – | – | – | – | −0.7 ± 2.9 | −6.6 ± 1.8 | −1.2 ± 1.3 | – | – | – | – | – | –
NCCC(=O)N[C@@H](Cc1c[nH]cn1)C(=O)NC[C@H](CO[N+](=O)[O-])O[N+](=O)[O-].O=C(O)C(F)(F)F [Ref. compound, (R)-3-((S)-2-(3-aminopropanamido)-3-(1H-imidazol-4-yl)propanamido)propane-1,2-diyl dinitrate 2,2,2-trifluoroacetate, reference compound] | – | – | – | – | – | −0.8 ± 0.6 | −0.3 ± 0.4 | −0.2 ± 0.4 | −0.05 ± 0.6 | – | – | – | −1.0 ± 0.5 | −0.8 ± 0.6 | −0.3 ± 0.4 | −0.2 ± 0.4 | −0.05 ± 0.6 | −0.7 ± 0.4
CC(C)(C)NC[C@H](O)COc1nsnc1N1CCOCC1 [Timolol, reference compound] | – | −5.7 ± 1.4 | −8.4 ± 1.2 | 0.2 ± 1.2 | – | – | – | – | – | −5.7 ± 1.4 | −8.4 ± 1.2 | 0.2 ± 1.2 | – | – | – | – | – | –
